Measured values taken from patent US20220387303A1, “Vaginal Drug Delivery Device” (THE REGENTS OF THE UNIVERSITY OF CALIFORNIA, priority 2019, published 2022).
Converted amounts (≈) assume the structure as drawn.

Key:
[1] = In vitro cumulative drug release from devices in PBS (pH 7.4) at 37° C. under gentle shaking; format: physicochemical
[2] = system: Candida albicans (ATCC 18804); test: Liquid assay, inhibition of yeast growth in Sabouraud dextrose broth; format: cell-based; details: for Optical Density (OD600): 12 h; for Cell Density: converted from OD600
Description: Liquid assay was also used to further characterize the […] properties. Candida albicans (ATCC 18804) was cultured in Sabouraud dextrose broth with a starting concentration of 0.08 OD600 value. After 12 h, optical density was measured using spectrometer at 600 nm wavelength. Then, conversion to cell density is using the approximation 0.5 equals 1.5×10^8 CFU/ml.

Row | sustained release duration ([1]; clotrimazole from PLGA device) | IC50 ([2]; Candida albicans, ATCC18804, after 12 h, starting 0.08 OD600, read-out: IC50 (half maximal inhibitory concentration)) | prolonged and sustained release of hormone drugs, duration ([1]; released from device) | Compound | Optical Density (OD600) ([2]; Clotrimazole Conc. 0.37 μg/ml) | Cell Density ([2]; Clotrimazole Conc. 0.37 μg/ml) | Optical Density (OD600) ([2]; Clotrimazole Conc. 1.1 μg/ml) | Cell Density ([2]; Clotrimazole Conc. 1.1 μg/ml) | Optical Density (OD600) ([2]; Clotrimazole Conc. 3.3 μg/ml) | Cell Density ([2]; Clotrimazole Conc. 3.3 μg/ml) | Optical Density (OD600) ([2]; Clotrimazole Conc. 10 μg/ml) | Cell Density ([2]; Clotrimazole Conc. 10 μg/ml)
1 | up to 10 days | 3.3 µg/mL (≈ 9.57 µM) |  | Clc1ccccc1C(c1ccccc1)(c1ccccc1)n1ccnc1 [Clotrimazole] | 0.9 | 2.7e+08 mL⁻¹ | 0.8 | 2.4e+08 mL⁻¹ | 0.7 | 2.1e+08 mL⁻¹ | 0.5 | 1.5e+08 mL⁻¹
2 |  |  | more than two months | CC(=O)[C@H]1CC[C@H]2[C@@H]3CCC4=CC(=O)CC[C@]4(C)[C@H]3CC[C@]12C [progesterone] |  |  |  |  |  |  |  | 
